We go through one compound from paper PMC5928083, “Structural basis for energy transduction by respiratory alternative complex III” (Nature Communications, 2018).

In this assay the target is T1, ACIII (alternative complex III) (Rhodothermus marinus, UniProt D0MDD6).
T1 construct: gene Rmar_0223; native multi-subunit membrane complex purified from R. marinus membranes in DDM; ActB Tat signal peptide (74 residues) absent; one further unidentified subunit; with Quinol:cytochrome c oxidoreductase pentaheme cytochrome subunit (alternative complex III subunit ActA); Quinol:cytochrome c oxidoreductase iron-sulfur protein (alternative complex III subunit ActB); Quinol:cytochrome c oxidoreductase membrane protein (alternative complex III subunit ActD); Quinol:cytochrome c oxidoreductase monoheme cytochrome subunit (alternative complex III subunit ActE); Alternative complex III subunit ActG; Hypothetical protein Rmar_1979 (ActH)
Kind of assay: isothermal titration calorimetry. The class given is binding. The note with it: read-out: log Ka (converted).

As to `CC1=C(C)C(=O)c2ccccc2C1=O` [2,3-dimethyl-1,4-naphthoquinone], the Kd is 316 nM.
